pIC50: −log10 of the molar value. Entries after “also recorded” stand apart in the source; their conditions may differ.
How the values were obtained:
[1] = system: Jurkat cells; experiment: Flow cytometry uptake of labeled GAA with IGF-II tag; format: cell-based, human; conditions: for inhibition of rhGAA-IGF-II uptake (in words): Jurkat cells (Jurkat and HepG2 not distinguished); for inhibition of uptake: rhGAA-IGF-II uptake into Jurkat cells
Experimental: The assay was also validated for a CI-MPR ligand that is not mannose-6 phosphate. The ability of CI-MPR expressing Jurkat or HepG2 cells were analyzed by flow cytometry for their ability to take up labeled GAA comprising an IGF-II tag, which facilitates binding to the CI-MPR. […] This uptake was inhibited by unlabeled GAA as well as anti-IGFII antibody.

[2] = system: Jurkat cells; experiment: Cell-based flow cytometry assay of Alexa488-rhGALNS uptake (screening assay, % SI); set-up: species or system human
Experimental: Cell uptake of rhGALNS is measured using flow cytometry to determine the amount of fluorophore-conjugated rhGALNS taken up by Jurkat cells. Jurkat cells are a non-adherent human T cell line that express CI-MPR, which binds and targets rhGALNS to the lysosome. rhGALNS neutralizing antibodies (NAb) are detected in samples by a decrease in fluorophore-conjugated rhGALNS uptake (calculated as % inhibition) that exceeds the screening cut point (SCP).
For a 1:1 dilution, 60 μL per well of controls were added in duplicate or in quadruplicate for 2 sets into the appropriate wells. Similarly, for a 1:1 dilution of sample, 60 μL per well of patient screening samples were added into the appropriate wells. For a 1:1 dilution for the confirmation assay, 60 μL per well of patient confirmation samples were added in duplicate into the corresponding wells. The plate was covered, wrapped in foil and allowed to incubate overnight for 14 to 20 hours at 2-8° C.
Assay: Prior to the sample incubation step, the cell plates were removed from the CO2 incubator and observed to ensure the cells were healthy and viable. […] After the incubation was completed, the cells were washed in PBS by centrifuging the plate for 6 min at 310×g in a tabletop centrifuge at 14 to 18° C., repeated two to five times as appropriate. After the last wash, the plate was removed from the centrifuge, the cell pellet resuspended in 100 μL viability stain (red fluorescent reactive dye 1:1000 dilution) and tested for viability. Once viability testing was complete, the cells were centrifuged 6 min at 310×g in a tabletop centrifuge at 14 to 18° C.
Percent Signal Inhibition (% SI) is calculated as [% SI=1—mean median fluorescence intensity (MFI) of sample/mean MFI of control×100]. Confirmatory assay data were analyzed as recovery ratio, defined as mean confirmatory assay MFI of sample/mean screening assay MFI of sample. The titer was calculated as the interpolated dilution factor at which the sample crossed the titer cut point determined by linear regression analysis (Microsoft Excel).

Which results are given for O=C[C@@H](O)[C@@H](O)[C@H](O)[C@H](O)COP(=O)(O)O [M6P, mannose-6-phosphate, reference compound]?
inhibition of rhGAA-IGF-II uptake (in words) [1]: partial inhibition; inhibition of rhGALNS uptake into Jurkat cells (in words) [2]: dose dependent effect; also recorded: dose dependently abrogated; also recorded: completely blocked; inhibition of rhGALNS uptake ([2]; 0.5M M6P): approximately 32%; inhibition of rhGALNS uptake ([2]; 5M M6P): approximately 96%; pIC50 ([2]; Homo sapiens, Jurkat cells): 3.34

How did the “MFI signal emitted from Alexa488-rhGALNS-treated cells” value ([2]; 374 μM cytochalasin B, pretreated 1 hour) turn out when C=C1[C@@H](C)[C@H]2[C@H](Cc3ccccc3)NC(=O)[C@]23OC(=O)/C=C/[C@H](O)CCC[C@@H](C)C/C=C/[C@H]3[C@@H]1O [cytochalasin B, reference compound] was run?
The value was 777±4.2.

Which “inhibition of rhGAA-IGF-II uptake (in words)” value [1] does the source give for “unlabeled GAA: unlabeled acid alpha glucosidase used as a competitor of GAA-IGFII uptake” here?
Its value is “inhibited”.

“IGF-II: CI-MPR ligand tested as a possible neutralizing factor” was tested. Which inhibition of uptake ([1]; 0.6M excess IGF-II) did it give?
The inhibition of uptake was “approximately 58%”.

What about the inhibition of uptake ([1]; 50M excess IGF-II) of the same molecule?
Its inhibition of uptake is “approximately 95%”.

What about the “inhibition of rhGAA-IGF-II uptake (in words)” value [1] of the same molecule?
The value was “dose dependent effect”.

What about the “inhibition of rhGALNS uptake into Jurkat cells (in words)” value [2] of the same molecule?
Its value is “partial inhibition”.

For Cc1cc(-c2ccc(/N=N/c3c(S(=O)(=O)O)cc4cc(S(=O)(=O)O)cc(N)c4c3O)c(C)c2)ccc1/N=N/c1c(S(=O)(=O)O)cc2cc(S(=O)(=O)O)cc(N)c2c1O [trypan blue, reference compound], which “fluorescence of cells treated with Alexa488-labeled anti-CD3” value ([2]; increasing concentrations of trypan blue) is on record?
Its value is “reduced”.

What about the “impact on Alexa488-rhGALNS MFI values” ([2]; trypan blue up to 0.4%) of the same molecule?
The value was “no impact”.

Source: patent US11262348B2, “Cell-based assays for detection of antibodies or other factors that neutralize uptake of lysosomal enzymes” (BIOMARIN PHARMACEUTICAL INC., priority 2015, dated 2022)
